{"source": "patent US20120214784A1", "about": "“SPIROPIPERIDINE COMPOUNDS AS ORL-1 RECEPTOR ANTAGONISTS” (ELI LILLY AND COMPANY, priority 2009, published 2012)", "key": {"[1]": {"molecular_target": "T1, cloned human ORL1 receptors (Homo sapiens, UniProt P41146)", "T1 construct": "expressed in transfected cells; host or cells: CHO cells (membranes)", "T1 sequence (P41146 whole entry)": "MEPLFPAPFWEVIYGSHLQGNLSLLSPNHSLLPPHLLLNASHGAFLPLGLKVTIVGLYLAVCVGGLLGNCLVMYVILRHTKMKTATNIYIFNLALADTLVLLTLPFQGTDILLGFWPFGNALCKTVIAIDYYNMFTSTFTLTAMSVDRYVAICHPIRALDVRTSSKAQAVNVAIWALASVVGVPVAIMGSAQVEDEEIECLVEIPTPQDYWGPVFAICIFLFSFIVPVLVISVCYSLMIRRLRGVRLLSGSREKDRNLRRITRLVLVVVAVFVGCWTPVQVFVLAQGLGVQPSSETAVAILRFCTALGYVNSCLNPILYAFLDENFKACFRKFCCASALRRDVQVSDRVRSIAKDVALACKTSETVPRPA", "assay": "[3H]-OFQ/nociceptin receptor binding assay", "description": "(§1) Radioligand binding assays are commonly used to determine the affinity (Ki) or potency of a compound to bind to a particular receptor or target protein. A filtration-based [3H]-OFQ/nociceptin receptor binding assay is developed based on previous assay formats (Ardati A, Henningsen R A, Higelin J, Reinscheid R K, Civelli O, Monsma F J Jr. Mol. Pharmacol. 1997 May; 51(5):816-24.) with minor modifications. [3H]-OFQ/nociceptin binding assays are carried out in deep-well 96-well plates. [^3H]OFQ (final assay concentration 0.2 nM) competition studies are carried out with 5-10 μg of membrane protein (isolated from Chinese hamster ovary cells (CHO cells) expressing cloned human ORL1 receptors) in a final assay volume of 0.5 mL of buffer containing 20 mM HEPES, pH 7.4, 5 mM MgCl2, 1 mM EGTA, 100 mM NaCl, 0.1% bovine serum albumin. Samples are incubated for 60 min. at room temperature, which is found to be optimal for competition assays. The assays are terminated by filtration through glass fiber filters (Wallac filtermat A) [pretreated with 0.3% polyethylenimine (Sigma) for 1 hr] on a Tometc cell harvester, and the filters are washed three times with 5 mL of ice-cold 50 mM Tris.HCl, pH 7.4. Filtermats are then dried and imbedded with Meltilex scintillant A and the radioactivity counted in a Wallac Microbeta scintillation counter. Specific binding is determined by displacement with 100 nM unlabeled nociceptin. Curves are plotted as the percent of specific binding and IC50 values are determined using a sigmoidal dose response curve with variable slope. K, values are calculated from the IC50 by the equation of Cheng and Prusoff (Cheng, Y. C., and Prusoff, W. H., Biochem. Pharmacol. 22, 3099-3108 (1973)) where Ki=IC50×(1+D×Kd^−1)^−1. Similarly, Ki for the mu, kappa and delta opioids, serotonin, adrenergic, and muscarinic receptors may be determined using membranes expressing the desired receptor and appropriate corresponding radioligand competitor molecules."}, "[2]": {"molecular_target": "5-HT1A (Homo sapiens, UniProt P08908)", "sequence (P08908 whole entry, species assumed)": "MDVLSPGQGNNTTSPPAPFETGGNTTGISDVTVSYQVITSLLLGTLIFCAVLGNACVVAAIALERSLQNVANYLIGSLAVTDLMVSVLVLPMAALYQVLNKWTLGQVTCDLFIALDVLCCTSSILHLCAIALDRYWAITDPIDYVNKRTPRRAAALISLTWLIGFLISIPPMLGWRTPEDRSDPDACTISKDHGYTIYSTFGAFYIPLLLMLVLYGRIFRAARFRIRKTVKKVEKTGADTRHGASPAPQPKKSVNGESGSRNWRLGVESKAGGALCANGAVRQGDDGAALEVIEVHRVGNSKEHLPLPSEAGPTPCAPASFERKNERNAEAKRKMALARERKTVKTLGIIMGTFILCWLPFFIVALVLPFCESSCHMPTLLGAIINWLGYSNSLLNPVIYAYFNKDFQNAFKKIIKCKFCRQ", "assay": "Radioligand binding selectivity", "description": "as §1"}, "[3]": {"molecular_target": "5-HT1B (Homo sapiens, UniProt P28222)", "assay": "Radioligand binding selectivity", "description": "as §1"}, "[4]": {"molecular_target": "5-HT1D (Homo sapiens, UniProt P28221)", "assay": "Radioligand binding selectivity", "description": "as §1"}, "[5]": {"molecular_target": "5-HT1E (Homo sapiens, UniProt P28566)", "assay": "Radioligand binding selectivity", "description": "as §1"}, "[6]": {"molecular_target": "5-HT2A (Homo sapiens, UniProt P28223)", "sequence (P28223 whole entry, species assumed)": "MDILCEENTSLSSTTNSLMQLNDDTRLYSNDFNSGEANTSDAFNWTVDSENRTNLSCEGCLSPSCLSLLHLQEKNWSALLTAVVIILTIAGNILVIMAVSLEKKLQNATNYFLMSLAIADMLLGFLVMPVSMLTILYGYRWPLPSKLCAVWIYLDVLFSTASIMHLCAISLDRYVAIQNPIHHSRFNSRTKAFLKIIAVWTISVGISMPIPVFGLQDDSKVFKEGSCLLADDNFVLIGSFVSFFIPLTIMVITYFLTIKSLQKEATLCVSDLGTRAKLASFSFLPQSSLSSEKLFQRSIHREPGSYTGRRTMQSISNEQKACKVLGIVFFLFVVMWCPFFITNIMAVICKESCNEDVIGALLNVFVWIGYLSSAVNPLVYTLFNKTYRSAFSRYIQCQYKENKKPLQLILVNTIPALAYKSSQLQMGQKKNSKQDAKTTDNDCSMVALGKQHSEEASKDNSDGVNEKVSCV", "assay": "Radioligand binding selectivity", "description": "as §1"}, "[7]": {"molecular_target": "5-HT2B (Homo sapiens, UniProt P41595)", "sequence (P41595 whole entry, species assumed)": "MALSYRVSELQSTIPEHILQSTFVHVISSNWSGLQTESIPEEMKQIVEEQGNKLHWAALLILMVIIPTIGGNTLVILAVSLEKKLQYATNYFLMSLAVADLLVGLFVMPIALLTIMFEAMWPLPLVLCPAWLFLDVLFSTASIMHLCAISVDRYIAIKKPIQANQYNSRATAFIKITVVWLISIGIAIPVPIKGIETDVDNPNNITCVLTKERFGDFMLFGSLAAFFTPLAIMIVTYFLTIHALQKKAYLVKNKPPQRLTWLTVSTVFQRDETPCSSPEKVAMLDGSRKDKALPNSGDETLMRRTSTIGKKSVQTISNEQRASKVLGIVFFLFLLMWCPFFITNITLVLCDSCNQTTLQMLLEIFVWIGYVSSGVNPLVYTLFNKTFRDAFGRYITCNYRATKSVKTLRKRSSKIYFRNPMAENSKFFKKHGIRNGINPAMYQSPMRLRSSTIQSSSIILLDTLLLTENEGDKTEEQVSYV", "assay": "Radioligand binding selectivity", "description": "as §1"}, "[8]": {"molecular_target": "5-HT2C (Homo sapiens, UniProt P28335)", "sequence (P28335 33-458, species assumed)": "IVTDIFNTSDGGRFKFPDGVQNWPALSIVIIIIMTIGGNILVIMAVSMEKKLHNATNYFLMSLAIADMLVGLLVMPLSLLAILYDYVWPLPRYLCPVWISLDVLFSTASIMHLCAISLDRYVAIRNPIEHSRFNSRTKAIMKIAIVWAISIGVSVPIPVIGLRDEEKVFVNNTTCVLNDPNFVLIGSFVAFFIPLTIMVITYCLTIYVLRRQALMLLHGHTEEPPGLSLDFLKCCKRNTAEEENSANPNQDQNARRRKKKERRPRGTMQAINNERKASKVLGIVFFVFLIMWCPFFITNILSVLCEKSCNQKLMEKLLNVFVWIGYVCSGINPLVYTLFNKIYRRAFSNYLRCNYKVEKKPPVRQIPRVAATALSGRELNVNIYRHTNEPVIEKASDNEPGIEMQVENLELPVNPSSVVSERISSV", "assay": "Radioligand binding selectivity", "description": "as §1"}, "[9]": {"molecular_target": "5-HT4 (Homo sapiens, UniProt Q13639)", "assay": "Radioligand binding selectivity", "description": "as §1"}, "[10]": {"molecular_target": "5-HT5 (Homo sapiens, UniProt P47898)", "sequence (P47898 whole entry, species assumed)": "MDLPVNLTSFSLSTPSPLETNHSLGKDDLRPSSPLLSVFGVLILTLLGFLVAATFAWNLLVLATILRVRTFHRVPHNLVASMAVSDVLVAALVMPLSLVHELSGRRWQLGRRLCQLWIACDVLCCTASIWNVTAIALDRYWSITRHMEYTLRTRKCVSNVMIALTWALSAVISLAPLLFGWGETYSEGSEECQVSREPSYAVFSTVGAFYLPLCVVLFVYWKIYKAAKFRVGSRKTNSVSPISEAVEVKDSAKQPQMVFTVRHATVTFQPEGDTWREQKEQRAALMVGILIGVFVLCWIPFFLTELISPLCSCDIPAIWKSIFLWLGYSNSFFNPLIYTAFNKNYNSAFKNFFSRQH", "assay": "Radioligand binding selectivity", "description": "as §1"}, "[11]": {"molecular_target": "5-HT6 (Homo sapiens, UniProt P50406)", "sequence (P50406 whole entry, species assumed)": "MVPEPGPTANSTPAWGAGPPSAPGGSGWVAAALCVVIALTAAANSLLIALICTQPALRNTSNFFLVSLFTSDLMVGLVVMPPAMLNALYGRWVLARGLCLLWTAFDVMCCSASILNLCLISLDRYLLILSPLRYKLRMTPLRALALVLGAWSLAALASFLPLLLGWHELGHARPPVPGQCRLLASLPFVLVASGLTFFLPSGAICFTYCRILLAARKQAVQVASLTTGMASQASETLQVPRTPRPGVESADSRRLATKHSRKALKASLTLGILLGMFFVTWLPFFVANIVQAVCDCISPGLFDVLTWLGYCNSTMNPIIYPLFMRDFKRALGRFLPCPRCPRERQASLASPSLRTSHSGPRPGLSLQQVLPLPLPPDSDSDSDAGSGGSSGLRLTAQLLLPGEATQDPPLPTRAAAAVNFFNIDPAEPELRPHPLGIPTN", "assay": "Radioligand binding selectivity", "description": "as §1"}, "[12]": {"molecular_target": "5-HT7 (Homo sapiens, UniProt P34969)", "sequence (P34969 whole entry, species assumed)": "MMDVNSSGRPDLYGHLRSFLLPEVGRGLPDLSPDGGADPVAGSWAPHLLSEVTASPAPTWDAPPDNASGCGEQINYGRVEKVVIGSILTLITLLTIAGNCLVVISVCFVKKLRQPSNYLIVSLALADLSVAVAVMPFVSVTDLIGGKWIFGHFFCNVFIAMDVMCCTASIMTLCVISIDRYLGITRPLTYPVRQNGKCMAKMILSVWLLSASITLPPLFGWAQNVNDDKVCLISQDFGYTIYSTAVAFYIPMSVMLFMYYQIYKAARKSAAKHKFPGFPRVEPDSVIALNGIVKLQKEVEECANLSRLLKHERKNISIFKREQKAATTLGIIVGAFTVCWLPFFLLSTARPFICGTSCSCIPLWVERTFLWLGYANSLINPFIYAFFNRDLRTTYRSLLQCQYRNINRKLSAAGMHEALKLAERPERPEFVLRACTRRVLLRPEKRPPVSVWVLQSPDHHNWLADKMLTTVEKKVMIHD", "assay": "Radioligand binding selectivity", "description": "as §1"}, "[13]": {"molecular_target": "Delta Opioid (Homo sapiens, UniProt P41143)", "sequence (P41143 whole entry)": "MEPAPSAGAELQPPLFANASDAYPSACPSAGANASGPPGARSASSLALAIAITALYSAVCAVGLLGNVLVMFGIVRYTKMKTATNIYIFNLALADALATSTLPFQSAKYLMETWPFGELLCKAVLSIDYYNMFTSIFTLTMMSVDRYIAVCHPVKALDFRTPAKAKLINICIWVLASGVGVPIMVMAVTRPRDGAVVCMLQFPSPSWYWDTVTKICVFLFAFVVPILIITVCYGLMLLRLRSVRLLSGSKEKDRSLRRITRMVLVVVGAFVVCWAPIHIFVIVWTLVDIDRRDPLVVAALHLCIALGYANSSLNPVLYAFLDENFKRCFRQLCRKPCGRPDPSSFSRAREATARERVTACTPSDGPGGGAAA", "assay": "Radioligand binding selectivity", "description": "as §1"}, "[14]": {"molecular_target": "Kappa Opioid (Homo sapiens, UniProt P41145)", "assay": "Radioligand binding selectivity", "description": "as §1"}, "[15]": {"molecular_target": "Mu Opioid (Homo sapiens, UniProt P35372)", "assay": "Radioligand binding selectivity", "description": "as §1"}, "[16]": {"molecular_target": "Muscarinic M1 (Homo sapiens, UniProt P11229)", "assay": "Radioligand binding selectivity", "description": "as §1"}, "[17]": {"molecular_target": "Muscarinic M2 (Homo sapiens, UniProt P08172)", "sequence (P08172 whole entry)": "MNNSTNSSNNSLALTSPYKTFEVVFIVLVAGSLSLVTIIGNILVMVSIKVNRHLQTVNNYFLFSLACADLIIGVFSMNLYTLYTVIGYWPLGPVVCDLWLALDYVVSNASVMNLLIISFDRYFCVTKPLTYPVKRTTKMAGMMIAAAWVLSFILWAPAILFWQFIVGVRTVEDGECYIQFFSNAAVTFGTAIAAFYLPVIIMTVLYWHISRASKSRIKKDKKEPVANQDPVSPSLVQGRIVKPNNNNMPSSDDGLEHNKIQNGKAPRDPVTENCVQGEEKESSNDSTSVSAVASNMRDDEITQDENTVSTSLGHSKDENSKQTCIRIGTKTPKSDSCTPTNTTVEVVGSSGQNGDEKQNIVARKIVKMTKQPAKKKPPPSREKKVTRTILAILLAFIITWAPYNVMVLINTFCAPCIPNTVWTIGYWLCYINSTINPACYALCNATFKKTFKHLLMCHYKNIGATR", "assay": "Radioligand binding selectivity", "description": "as §1"}, "[18]": {"molecular_target": "Muscarinic M3 (Homo sapiens, UniProt P20309)", "assay": "Radioligand binding selectivity", "description": "as §1"}, "[19]": {"molecular_target": "Muscarinic M4 (Homo sapiens, UniProt P08173)", "assay": "Radioligand binding selectivity", "description": "as §1"}, "[20]": {"molecular_target": "Muscarinic M5 (Homo sapiens, UniProt P08912)", "sequence (P08912 whole entry)": "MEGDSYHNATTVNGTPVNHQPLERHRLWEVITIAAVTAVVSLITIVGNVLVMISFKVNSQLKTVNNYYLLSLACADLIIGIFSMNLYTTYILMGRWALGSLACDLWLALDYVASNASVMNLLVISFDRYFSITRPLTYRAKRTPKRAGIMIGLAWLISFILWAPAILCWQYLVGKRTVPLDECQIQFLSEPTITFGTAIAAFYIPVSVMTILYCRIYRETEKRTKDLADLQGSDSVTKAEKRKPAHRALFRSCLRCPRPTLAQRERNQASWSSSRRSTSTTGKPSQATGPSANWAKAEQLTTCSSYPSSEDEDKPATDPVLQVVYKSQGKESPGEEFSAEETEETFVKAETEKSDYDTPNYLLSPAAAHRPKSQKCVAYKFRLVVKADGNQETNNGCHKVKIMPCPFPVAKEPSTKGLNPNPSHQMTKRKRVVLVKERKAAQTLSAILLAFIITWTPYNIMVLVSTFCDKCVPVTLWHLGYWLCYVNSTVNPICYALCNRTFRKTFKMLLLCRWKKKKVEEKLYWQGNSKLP", "assay": "Radioligand binding selectivity", "description": "as §1"}, "[21]": {"molecular_target": "Adenosine A3 (Homo sapiens, UniProt P0DMS8)", "assay": "Radioligand binding selectivity"}, "[22]": {"molecular_target": "T2, nociceptin/ORL1 receptors (Rattus norvegicus, UniProt P35370)", "T2 construct": "rats are sacrificed by cervical dislocation and the hypothalamus is removed; from tissue; host or cells: rat hypothalamus (in vivo occupancy)", "assay": "In vivo receptor occupancy (LC/MS/MS, RO Tracer) in hypothalamus", "details": "oral 3 mg/kg dose after 6 hr."}}, "note": "pKi: −log10 of the molar value.", "data": [{"smiles": "Cc1nn(-c2c(F)cccc2F)cc1CN1CCC2(CC1)OCC(F)(F)c1cc(Cl)sc12.O=C(O)C(O)C(O)C(=O)O", "note": "[Example 2, 2-Chloro-1′-[[1-(2,6-difluorophenyl)-3-methyl-pyrazol-4-yl]methyl]-4,4-difluoro-spiro[5H-thieno[2,3-c]pyran-7,4′-piperidine] (L)-Tartrate]", "values": [{"measurement": "pKi", "setting": "[1]", "value": 9.77}, {"measurement": "pKi", "setting": "[2]", "value": "< 5.50"}, {"measurement": "pKi", "setting": "[3]", "value": "< 5.45"}, {"measurement": "pKi", "setting": "[4]", "value": "< 5.10"}, {"measurement": "pKi", "setting": "[5]", "value": "< 5.27"}, {"measurement": "pKi", "setting": "[6]", "value": "< 5.14"}, {"measurement": "pKi", "setting": "[7]", "value": 5.94}, {"measurement": "pKi", "setting": "[8]", "value": "< 5.08"}, {"measurement": "pKi", "setting": "[9]", "value": "< 5.71"}, {"measurement": "pKi", "setting": "[10]", "value": "< 5.04"}, {"measurement": "pKi", "setting": "[11]", "value": "< 5.23"}, {"measurement": "pKi", "setting": "[12]", "value": "< 5.40"}, {"measurement": "pKi", "setting": "[13]", "value": "< 6.32"}, {"measurement": "pKi", "setting": "[14]", "value": "< 6.34"}, {"measurement": "pKi", "setting": "[15]", "value": "< 6.33"}, {"measurement": "pKi", "setting": "[16]", "value": 5.86}, {"measurement": "pKi", "setting": "[17]", "value": "< 5.10"}, {"measurement": "pKi", "setting": "[18]", "value": "< 4.62"}, {"measurement": "pKi", "setting": "[19]", "value": 5.20}, {"measurement": "pKi", "setting": "[20]", "value": 5.55}, {"measurement": "pKi", "setting": "[21]", "value": 5.64}, {"measurement": "receptor occupancy at 3 mg/kg", "setting": "[22]", "value": 76, "unit": "%"}]}]}
